For series [1], the target named is calcium channel (blood vessel, thoracic aortae) (Rattus norvegicus, UniProt P22002). Description: In vitro calcium channel-antagonistic effect (blood vessel): inhibition of high potassium contraction of thoracic aorta spiral samples. It counts as cell-based, rat (male Crj:CD). To be noted: 30 minute pretreatment; for inhibition at 0.1 µM: high potassium (45.0 mM KCl) contraction, 10^−7 M test compound, read-out: Inhibition rate (%) (conc.: 10^−7M). How it is done:
In Vitro Calcium Channel-antagonistic Effect (Blood Vessel):
The thoracic aortae were taken out of male Crj:CD rats (8-12 weeks old) and spiral samples were prepared from them. The blood vessel samples were suspended in Tyrode's solution in which a mixed gas (95% of oxygen and 5% of carbon dioxide) was introduced at 37° C. As for the change in tension of each blood vessel, the isometry was recorded on an ink writing recorder through a transducer. The high potassium contraction was caused by changing the nutritive solution from the Tyrode's solution to a potassium-Tyrode's solution (94.6 mM of NaCl, 45.0 mM of KCl, 1.8 mM of CaCl2, 1.04 mM of MgCl2, 0.4 mM of NaH2PO4, 11.9 mM of NaHCO3, and 5.55 mM of glucose). The high potassium contraction-inhibiting effect of the test compound was determined by 30 minute pretreatment. Compound A described in European Patent No. 0404359A1 was used as a comparative substance. The results of the determination of the calcium channel antagonistic activity were given in terms of the rate of inhibition of the high calcium contraction with 10^−7 M of the test compound. In Table 1, “−” means not determined.

The next series addresses calcium channel (ileum) (Rattus norvegicus, UniProt P22002). Description: In vitro calcium channel-antagonistic effect (ileum): inhibition of high potassium contraction of ileum samples. Format: cell-based, rat (male Crj:CD). To be noted: 30 minute pretreatment; for inhibition at 0.1 µM: high potassium (45.0 mM KCl) contraction, 10^−7 M test compound, read-out: Inhibition rate (%) (conc.: 10^−7M). How it is done:
In Vitro Calcium Channel-antagonistic Effect (Ileum):
The ileum was taken out of male Crj:CD rats (8-12 weeks old) at a position of 3 cm distant from the ileocecal region. The ileum samples were suspended in Tyrode's solution in which a mixed gas (95% of oxygen and 5% of carbon dioxide) was introduced at 37° C. As for the change in tension of the ileum, the isometry was recorded on a ink writing recorder through a transducer. The high potassium contraction was caused by changing the nutritive solution from the Tyrode's solution to a potassium-Tyrode's solution (94.6 mM of NaCl, 45.0 mM of KCl, 1.8 mM of CaCl2, 1.04 mM of MgCl2, 0.4 mM of NaH2PO4, 11.9 mM of NaHCO3, and 5.55 mM of glucose). The high potassium contraction-inhibiting effect of the test compound was determined by 30 minute pretreatment. Compound A described in European Patent No. 0404359A1 was used as a comparative substance. The results of the determination of the calcium channel antagonistic activity were given in terms of the rate of inhibition of the high calcium contraction with 10^−7 M of the test compound. In Table 2, “−” means not determined.

A short description of series [2]: Determination of solubility in neutral buffer solution. Format: physicochemical. Particulars: aqueous buffer, thermodynamic from solid; 0.15 M phosphate buffer pH 7.2, room temperature, left overnight, supernatant by HPLC. On the procedure:
Determination of Solubility:
A test compound was suspended in 0.15 M phosphate buffer solution having pH of 7.2 at room temperature. The obtained suspension was vigorously shaken and then left to stand overnight. The insoluble compound was removed by centrifugation, and the concentration of the compound in the supernatant was determined by the high-performance liquid chromatography.

Structures are written as SMILES.

The results in this text go back to patent US6562808B1, “5,11-dihydrodibenzo[b,e][1,4]oxazepine derivatives and pharmaceutical composition containing the same” (Ajinomoto Co., Inc., priority 1997, dated 2003).

The term inhibition denotes the drop in the measured response relative to a control, in per cent. A word on the solubility: it is the dissolved amount per volume that the medium holds. Low values mean little dissolved substance, high ones much dissolved substance. What is called melting point is the temperature, or range, at which the solid turns liquid.

Sequence of calcium channel (blood vessel, thoracic aortae) (P22002 whole entry): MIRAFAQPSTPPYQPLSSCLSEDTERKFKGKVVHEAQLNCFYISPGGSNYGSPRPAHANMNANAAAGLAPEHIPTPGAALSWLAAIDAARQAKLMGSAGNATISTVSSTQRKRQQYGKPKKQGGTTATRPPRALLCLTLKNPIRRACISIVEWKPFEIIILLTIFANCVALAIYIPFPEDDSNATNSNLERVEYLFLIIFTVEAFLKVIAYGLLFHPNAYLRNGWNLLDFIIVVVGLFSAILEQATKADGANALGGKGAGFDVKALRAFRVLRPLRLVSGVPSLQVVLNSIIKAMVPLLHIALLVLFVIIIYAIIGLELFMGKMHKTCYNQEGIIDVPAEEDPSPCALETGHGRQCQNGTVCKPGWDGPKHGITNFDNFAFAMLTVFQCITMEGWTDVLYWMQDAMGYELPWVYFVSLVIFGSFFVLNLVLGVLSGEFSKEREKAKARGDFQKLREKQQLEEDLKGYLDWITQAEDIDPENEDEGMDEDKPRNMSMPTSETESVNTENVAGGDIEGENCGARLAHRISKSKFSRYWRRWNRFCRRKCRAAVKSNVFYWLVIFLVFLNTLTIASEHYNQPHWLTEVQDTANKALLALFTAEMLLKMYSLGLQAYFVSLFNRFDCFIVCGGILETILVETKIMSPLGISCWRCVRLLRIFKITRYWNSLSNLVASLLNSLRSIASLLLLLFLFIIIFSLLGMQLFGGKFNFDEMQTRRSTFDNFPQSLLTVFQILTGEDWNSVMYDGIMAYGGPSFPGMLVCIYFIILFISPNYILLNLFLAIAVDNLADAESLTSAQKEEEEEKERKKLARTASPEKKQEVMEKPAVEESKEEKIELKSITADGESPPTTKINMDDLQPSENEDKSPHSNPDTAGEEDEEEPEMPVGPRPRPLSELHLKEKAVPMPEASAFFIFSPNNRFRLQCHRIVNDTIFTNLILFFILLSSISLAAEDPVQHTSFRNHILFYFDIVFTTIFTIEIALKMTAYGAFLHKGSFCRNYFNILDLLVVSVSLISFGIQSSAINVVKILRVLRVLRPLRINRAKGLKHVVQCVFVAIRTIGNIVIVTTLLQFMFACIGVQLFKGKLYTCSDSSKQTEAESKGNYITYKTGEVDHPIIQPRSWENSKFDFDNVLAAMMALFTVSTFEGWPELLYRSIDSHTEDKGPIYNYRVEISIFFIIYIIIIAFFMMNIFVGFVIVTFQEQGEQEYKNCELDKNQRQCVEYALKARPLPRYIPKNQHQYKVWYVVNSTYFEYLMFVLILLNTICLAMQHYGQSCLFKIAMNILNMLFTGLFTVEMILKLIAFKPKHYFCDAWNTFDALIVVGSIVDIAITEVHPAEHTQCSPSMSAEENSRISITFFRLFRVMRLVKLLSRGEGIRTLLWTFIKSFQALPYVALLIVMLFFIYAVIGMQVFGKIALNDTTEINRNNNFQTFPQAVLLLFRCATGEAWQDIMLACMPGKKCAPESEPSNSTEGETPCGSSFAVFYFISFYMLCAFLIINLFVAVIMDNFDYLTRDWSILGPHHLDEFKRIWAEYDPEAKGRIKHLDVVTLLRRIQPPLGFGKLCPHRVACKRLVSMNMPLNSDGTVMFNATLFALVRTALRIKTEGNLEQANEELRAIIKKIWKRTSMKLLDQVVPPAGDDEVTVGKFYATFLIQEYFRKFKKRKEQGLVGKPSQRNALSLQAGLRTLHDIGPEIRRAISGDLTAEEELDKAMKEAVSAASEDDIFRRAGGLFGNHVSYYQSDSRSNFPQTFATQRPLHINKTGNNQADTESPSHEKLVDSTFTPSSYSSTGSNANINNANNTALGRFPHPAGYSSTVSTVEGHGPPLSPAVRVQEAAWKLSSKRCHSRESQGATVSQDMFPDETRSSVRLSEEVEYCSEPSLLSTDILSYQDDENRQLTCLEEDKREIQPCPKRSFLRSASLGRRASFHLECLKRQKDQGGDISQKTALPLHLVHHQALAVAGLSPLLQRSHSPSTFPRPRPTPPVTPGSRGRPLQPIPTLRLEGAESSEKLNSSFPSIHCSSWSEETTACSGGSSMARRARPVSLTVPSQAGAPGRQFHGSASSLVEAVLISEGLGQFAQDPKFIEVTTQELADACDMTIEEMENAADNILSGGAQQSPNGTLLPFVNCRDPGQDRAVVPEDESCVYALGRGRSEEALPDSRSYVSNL
Sequence of calcium channel (ileum) (P22002 whole entry): as above

`CN(C)c1cccc(CCCN2CCC[C@@H]2CN2c3ccccc3COc3ccccc32)c1.Cl.Cl` [Example 38, (R)-5,11-Dihydro-5-[1-[3-(3-dimethylaminophenyl)propane-1-yl]-2-pyrrolidinylmethyl]dibenzo[b,e][1,4]oxazepine Dihydrochloride] yielded a melting point of 120 to 123 °C. Also, in series [1], the inhibition at 0.1 µM is 25%. Further, the inhibition at 0.1 µM on calcium channel (ileum) is 52%. In series [2], this molecule had a solubility of 41 µg/mL.

For the molecule `CCN(CC)c1ccc(CCN2CCC[C@@H]2CN2c3ccccc3COc3ccccc32)cc1.Cl.Cl` [Example 6, (R)-5,11-Dihydro-5-[1-[2-(4-diethylaminophenyl)ethyl]-2-pyrrolidinylmethyl]dibenzo[b,e][1,4]oxazepine Dihydrochloride], the melting point is 143 to 146 °C. Besides, the inhibition at 0.1 µM in series [1] worked out at 24%. Further, the inhibition at 0.1 µM on calcium channel (ileum) is 51%. For the same molecule, in series [2], the solubility was 638 µg/mL.

Molecule `CN(C)c1ccc(CCN2CCC[C@@H]2CN2c3ccccc3COc3ccccc32)cc1.Cl.Cl` [Example 2, (R)-5,11-Dihydro-5-[1-[2-(4-dimethylaminophenyl)ethyl]-2-pyrrolidinylmethyl]dibenzo[b,e][1,4]oxazepine Dihydrochloride] showed a melting point of 164 to 169 °C. Besides, in series [1], the inhibition at 0.1 µM worked out at 12%. Also, the inhibition at 0.1 µM on calcium channel (ileum) is 62%. Also, the solubility in series [2] was 36 µg/mL.

Regarding `CN(C)c1cccc(CCN2CCC[C@@H]2CN2c3ccccc3COc3ccccc32)c1.Cl.Cl` [Example 10, (R)-5,11-Dihydro-5-[1-[2-(3-dimethylaminophenyl)ethyl]-2-pyrrolidinylmethyl]dibenzo[b,e][1,4]oxazepine Dihydrochloride], the melting point was in the range of 125 to 128 °C. Further, the inhibition at 0.1 µM in series [1] was 51%. Besides, the inhibition at 0.1 µM on calcium channel (ileum) was 87%. The same molecule yielded a solubility in series [2] of 30 µg/mL.

With `COc1ccc(CCN2CCCC2CN2c3ccccc3CSc3ccccc32)cc1.O=C(O)/C=C\C(=O)O` (stereo not drawn) [Compound A, reference compound], the IC50 turned out to be 530 nM in series [1] (high potassium contraction, read-out: IC50 (nM), concentration for 50% contraction inhibition) and 120 nM on calcium channel (ileum) (high potassium contraction, read-out: IC50(nM), concentration for 50% contraction inhibition). In series [2], the solubility was found to be 13 µg/mL.

`CNc1ccc(CCN2CCC[C@@H]2CN2c3ccccc3COc3ccccc32)cc1.Cl.Cl` [Example 8, (R)-5,11-Dihydro-5-[1-[2-(4-methylaminophenyl)ethyl]-2-pyrrolidinylmethyl]dibenzo[b,e][1,4]oxazepine Dihydrochloride] displayed a melting point of 134 to 137 °C. Moreover, the solubility in series [2] worked out at 116 µg/mL.

`COc1ccc(CCCN2CCC[C@@H]2CN2c3ccccc3COc3ccccc32)cc1.Cl` [Example 24, (R)-5,11-Dihydro-5-[1-[3-(4-methoxyphenyl)propane-1-yl]-2-pyrrolidinylmethyl]dibenzo[b,e][1,4]oxazepine Hydrochloride] showed a melting point of 172 to 174 °C. Moreover, the inhibition at 0.1 µM in series [1] came to 31%. In addition, the inhibition at 0.1 µM at calcium channel (ileum) came out at 67%. For the same molecule, in series [2], the solubility was 49 µg/mL.

In the case of `Cl.Cl.Nc1cccc(CCN2CCC[C@@H]2CN2c3ccccc3COc3ccccc32)c1` [Example 13, (R)-5,11-Dihydro-5-[1-[2-(3-aminophenyl)ethyl]-2-pyrrolidinylmethyl]dibenzo[b,e][1,4]oxazepine Dihydrochloride], the melting point was 149 to 152 °C. The same molecule showed a solubility in series [2] of 418 µg/mL.

`Cl.O[C@H](CCN1CCC[C@@H]1CN1c2ccccc2COc2ccccc21)c1ccccc1` had a melting point of 179 to 182 °C.

Turning to `CN(C)c1cccc(CCN2CCC[C@@H]2CN2c3ccccc3COc3ccccc32)c1.Cl.Cl` [Example 19, (R)-5,11-Dihydro-5-[1-[2-(3-dimethylaminophenyl)ethyl]2-pyrrolidinylmethyl)dibenzo[b,e][1,4]oxazepine Dihydrochloride], the melting point lay within 170 to 172 °C.

`COc1ccc(OCCN2CCC[C@@H]2CN2c3ccccc3COc3ccccc32)cc1.Cl`: the melting point was in the range of 186 to 191 °C.

Take `COc1ccc(C=CCN2CCC[C@@H]2CN2c3ccccc3COc3ccccc32)cc1.Cl`: the melting point was in the range of 120 to 122 °C.

In turn, `Cl.O[C@@H](CCN1CCC[C@@H]1CN1c2ccccc2COc2ccccc21)c1ccccc1` came in with a melting point of 149 to 150 °C.

Molecule `COc1ccc(CCN2CCC[C@@H]2CN2c3ccccc3COc3ccccc32)cc1N(C)C.Cl.Cl` yielded a melting point of 141 to 144 °C.

Turning to `CNc1cccc(CCN2CCC[C@@H]2CN2c3ccccc3COc3ccccc32)c1.Cl.Cl` [Example 14, (R)-5,11-Dihydro-5-[1-[2-(3-methylaminophenyl)ethyl]-2-pyrrolidinylmethyl]dibenzo[b,e][1,4]oxazepine Dihydrochloride], the melting point lay within 179 to 181 °C. Also, the inhibition at 0.1 µM in series [1] worked out at 41%. Also, the inhibition at 0.1 µM at calcium channel (ileum) was 76%. In series [2], this molecule displayed a solubility of 56 µg/mL.

In the case of `Cl.Cl.Nc1ccccc1CCN1CCC[C@@H]1CN1c2ccccc2COc2ccccc21`, the melting point fell in the range of 168 to 172 °C.

`Cl.Cl.Nc1ccc(CCN2CCC[C@@H]2CN2c3ccccc3COc3ccccc32)cc1` yielded a melting point of 176 to 180 °C.
